In patent US20190225650A1, “PEPTIDOMIMETIC MACROCYCLES AND USE THEREOF IN REGULATING HIF1ALPHA” (AILERON THERAPEUTICS, INC., priority 2013, published 2019):
Bridge positions count the residues as written; N and C are the ends. Square brackets hold non-standard residues; d marks the D form. Peptide text beside a SMILES is read from it. S5 = C=CCCC[C@](C)(N)C(=O)O; Nle = CCCC[C@H](N)C(=O)O; Dap = NC[C@H](N)C(=O)O

System: HRE-bla ME-180 cells
Experiment: Reporter gene assay (HRE-bla ME-180 HIF reporter, GeneBLAzer)
Assay type: cell-based, human
Settings: for EC50: 24 hour normoxia
How it was run: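 A FRET β-lactamase readout of HIF transcription was used. After compound treatment in 0.3% DMSO/media under normoxic conditions, 20 μl of 6× LiveBLAzer-FRET B/G (CCF4-AM) substrate was added. Plates sat 3 hr at room temperature in the dark and were read at 409 Ex/460Em and 409Ex/530Em on a Synergy 2. Inhibition was compared against DMSO vehicle controls, with chetomin as positive control.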

Structure (SMILES)	18 h Avg % max inhibition at top conc (HIF Rptr-24 hrs normoxia) (μM)	EC50 [µM]
CCCC[C@H](NC(=O)[C@H](CC(C)C)NC(=O)[C@@H](NC(=O)[C@H](CCC(=O)O)NC(=O)[C@H](CCC(=O)O)NC(=O)[C@H](CC(=O)O)NC(=O)[C@H](CCC(=O)O)NC(=O)[C@H](Cc1ccccc1)NC(C)=O)C(C)C)C(=O)N[C@@]1(C)CCCC=CCCC[C@@](C)(C(=O)N[C@@H](CCCC)C(=O)N[C@@H](C)C(=O)N[C@@H](CC(C)C)C(=O)N[C@@H](CC(=O)O)C(=O)N[C@@H](CCCNC(=N)N)C(=O)N[C@H](C(N)=O)[C@@H](C)CC)NC(=O)[C@H]([C@@H](C)CC)NC(=O)[C@H](C(C)C)NC(=O)[C@H](CC(C)C)NC1=O [SP-31] (Ac-FEDEEVL[Nle][S5]LVI[S5][Nle]ALDRI-NH2; staple 9-13)	+ (<10: +)	> 30
CCCC[C@H](NC(=O)[C@H](CC(C)C)NC(=O)[C@@H](NC(=O)[C@H](CCC(=O)O)NC(=O)[C@H](CCC(=O)O)NC(=O)[C@H](CN)NC(=O)[C@@H](NC(=O)[C@H](Cc1ccccc1)NC(C)=O)[C@@H](C)CC)C(C)C)C(=O)N[C@@]1(C)CCCC=CCCC[C@@](C)(C(=O)N[C@@H](CCCC)C(=O)N[C@@H](C)C(=O)N[C@@H](CC(C)C)C(=O)N[C@@H](CC(=O)O)C(=O)N[C@@H](CCCNC(=N)N)C(=O)N[C@H](C(N)=O)[C@@H](C)CC)NC(=O)[C@H]([C@@H](C)CC)NC(=O)[C@H](C(C)C)NC(=O)[C@H](CC(C)C)NC1=O [SP-62] (Ac-FI[Dap]EEVL[Nle][S5]LVI[S5][Nle]ALDRI-NH2; staple 9-13)	++ (≤10 but <25: ++)	> 30
CCCC[C@H](NC(=O)[C@H](CC(C)C)NC(=O)[C@@H](NC(=O)[C@H](CCC(=O)O)NC(=O)[C@H](CCC(=O)O)NC(=O)[C@H](CC(=O)O)NC(=O)[C@@H](NC(=O)[C@H](CN)NC(C)=O)[C@@H](C)CC)C(C)C)C(=O)N[C@@]1(C)CCCC=CCCC[C@@](C)(C(=O)N[C@@H](CCCC)C(=O)N[C@@H](C)C(=O)N[C@@H](CC(C)C)C(=O)N[C@@H](CC(=O)O)C(=O)N[C@@H](CCCNC(=N)N)C(=O)N[C@H](C(N)=O)[C@@H](C)CC)NC(=O)[C@H]([C@@H](C)CC)NC(=O)[C@H](C(C)C)NC(=O)[C@H](CC(C)C)NC1=O [SP-61] (Ac-[Dap]IDEEVL[Nle][S5]LVI[S5][Nle]ALDRI-NH2; staple 9-13)	+ (<10: +)	> 30
CCCC[C@H](NC(=O)[C@H](CC(C)C)NC(=O)[C@@H](NC(=O)[C@H](CCC(=O)O)NC(=O)[C@H](CCC(=O)O)NC(=O)[C@H](CC(=O)O)NC(=O)[C@@H](NC(=O)[C@H](Cc1ccccc1)NC(C)=O)[C@@H](C)CC)C(C)C)C(=O)N[C@@]1(C)CCCC=CCCC[C@@](C)(C(=O)N[C@@H](CCCC)C(=O)N[C@@H](C)C(=O)N[C@@H](CC(C)C)C(=O)N[C@@H](CC(=O)O)C(=O)N[C@@H](CCCNC(=N)N)C(=O)N[C@H](C(N)=O)[C@@H](C)CC)NC(=O)[C@H](CCC(=O)O)NC(=O)[C@H](C(C)C)NC(=O)[C@H](CC(C)C)NC1=O [SP-37] (Ac-FIDEEVL[Nle][S5]LVE[S5][Nle]ALDRI-NH2; staple 9-13)	+ (<10: +)	> 30
CCCC[C@H](NC(=O)[C@H](CC(C)C)NC(=O)[C@@H](NC(=O)[C@H](CCC(=O)O)NC(=O)[C@H](CCC(=O)O)NC(=O)[C@H](CC(=O)O)NC(=O)[C@@H](NC(=O)[C@H](Cc1ccccc1)NC(C)=O)[C@@H](C)CC)C(C)C)C(=O)N[C@@]1(C)CCCC=CCCC[C@@](C)(C(=O)N[C@@H](CCCC)C(=O)N[C@@H](C)C(=O)N[C@@H](CC(C)C)C(=O)N[C@@H](CC(=O)O)C(=O)N[C@@H](CCCNC(=N)N)C(=O)N[C@H](C(N)=O)[C@@H](C)CC)NC(=O)[C@H](CN)NC(=O)[C@H](C(C)C)NC(=O)[C@H](CC(C)C)NC1=O [SP-65] (Ac-FIDEEVL[Nle][S5]LV[Dap][S5][Nle]ALDRI-NH2; staple 9-13)	+ (<10: +)	> 30
CCCC[C@H](NC(=O)[C@H](CC(C)C)NC(=O)[C@@H](NC(=O)[C@H](CCC(=O)O)NC(=O)[C@H](CCC(=O)O)NC(=O)[C@H](CC(=O)O)NC(=O)[C@@H](NC(=O)[C@H](Cc1ccccc1)NC(C)=O)[C@@H](C)CC)C(C)C)C(=O)N[C@@]1(C)CCCC=CCCC[C@@](C)(C(=O)N[C@@H](CCCC)C(=O)N[C@@H](C)C(=O)N[C@@H](CC(C)C)C(=O)N[C@@H](CC(=O)O)C(=O)N[C@@H](CCCNC(=N)N)C(=O)N[C@H](C(N)=O)[C@@H](C)CC)NC(=O)[C@H]([C@@H](C)CC)NC(=O)[C@H](C(C)C)NC(=O)[C@H](C)NC1=O [SP-17] (Ac-FIDEEVL[Nle][S5]AVI[S5][Nle]ALDRI-NH2; staple 9-13)	++++ (≥50: ++++)	5 to 15
CCCC[C@H](NC(=O)[C@H](CC(C)C)NC(=O)[C@@H](NC(=O)[C@H](CCC(=O)O)NC(=O)[C@H](CCC(=O)O)NC(=O)[C@H](CC(=O)O)NC(=O)[C@@H](NC(=O)[C@H](CO)NC(C)=O)[C@@H](C)CC)C(C)C)C(=O)N[C@@]1(C)CCCC=CCCC[C@@](C)(C(=O)N[C@@H](CCCC)C(=O)N[C@@H](C)C(=O)N[C@@H](CC(C)C)C(=O)N[C@@H](CC(=O)O)C(=O)N[C@@H](CCCNC(=N)N)C(=O)N[C@H](C(N)=O)[C@@H](C)CC)NC(=O)[C@H]([C@@H](C)CC)NC(=O)[C@H](C(C)C)NC(=O)[C@H](CC(C)C)NC1=O [SP-44] (Ac-SIDEEVL[Nle][S5]LVI[S5][Nle]ALDRI-NH2; staple 9-13)	+++ (≤25 but <50: +++)	15 to 30
CCCC[C@H](NC(=O)[C@H](CC(C)C)NC(=O)[C@@H](NC(=O)[C@H](CCC(=O)O)NC(=O)[C@H](CCC(=O)O)NC(=O)[C@H](CC(=O)O)NC(=O)[C@@H](NC(=O)[C@H](Cc1ccccc1)NC(C)=O)[C@@H](C)CC)C(C)C)C(=O)N[C@@]1(C)CCCC=CCCC[C@@](C)(C(=O)N[C@@H](CCCC)C(=O)N[C@@H](C)C(=O)N[C@@H](CCC(=O)O)C(=O)N[C@@H](CC(=O)O)C(=O)N[C@@H](CCCNC(=N)N)C(=O)N[C@H](C(N)=O)[C@@H](C)CC)NC(=O)[C@H]([C@@H](C)CC)NC(=O)[C@H](C(C)C)NC(=O)[C@H](CC(C)C)NC1=O [SP-40] (Ac-FIDEEVL[Nle][S5]LVI[S5][Nle]AEDRI-NH2; staple 9-13)	+ (<10: +)	> 30
CC[C@H](C)[C@H](NC(=O)[C@H](CCCNC(=N)N)NC(=O)[C@H](CC(=O)O)NC(=O)[C@H](CC(C)C)NC(=O)CNC(=O)[C@H](CCSC)NC(=O)[C@]1(C)CCCC=CCCC[C@](C)(NC(=O)[C@H](CCSC)NC(=O)[C@H](CC(C)C)NC(=O)[C@@H](NC(=O)[C@H](CCC(=O)O)NC(=O)[C@H](CCC(=O)O)NC(=O)[C@H](CC(=O)O)NC(C)=O)C(C)C)C(=O)N[C@@H](CC(C)C)C(=O)N[C@@H](C(C)C)C(=O)N[C@@H]([C@@H](C)CC)C(=O)N1)C(=O)N[C@@H](CCCCN)C(=O)N[C@@H](CCC(=O)O)C(=O)N[C@@H](CC(C)C)C(=O)N1CCC[C@H]1C(=O)N[C@@H](CCC(=O)O)C(=O)N[C@@H](CC(C)C)C(=O)N[C@@H](Cc1c[nH]c2ccccc12)C(=O)N[C@@H](CC(C)C)C(N)=O [SP-87] (Ac-DEEVLM[S5]LVI[S5]MGLDRIKELPELWL-NH2; staple 7-11)	++++ (≥50: ++++)	15 to 30
CCCC[C@H](NC(=O)[C@H](CC(C)C)NC(=O)[C@@H](NC(=O)[C@H](CCC(=O)O)NC(=O)[C@H](CCC(=O)O)NC(=O)[C@H](CC(=O)O)NC(=O)[C@@H](NC(=O)[C@H](Cc1ccccc1)NC(C)=O)[C@@H](C)CC)C(C)C)C(=O)N[C@@]1(C)CCCC=CCCC[C@@](C)(C(=O)N[C@@H](C)C(=O)N[C@@H](C)C(=O)N[C@@H](CC(C)C)C(=O)N[C@@H](CC(=O)O)C(=O)N[C@@H](CCCNC(=N)N)C(=O)N[C@H](C(N)=O)[C@@H](C)CC)NC(=O)[C@H]([C@@H](C)CC)NC(=O)[C@H](C(C)C)NC(=O)[C@H](CC(C)C)NC1=O [SP-20] (Ac-FIDEEVL[Nle][S5]LVI[S5]AALDRI-NH2; staple 9-13)	++++ (≥50: ++++)	5 to 15
CCCC[C@H](NC(=O)[C@H](CC(C)C)NC(=O)[C@@H](NC(=O)[C@H](CCC(=O)O)NC(=O)[C@H](CCC(=O)O)NC(=O)[C@H](CC(=O)O)NC(=O)[C@@H](NC(=O)[C@H](Cc1ccccc1)NC(C)=O)[C@@H](C)CC)C(C)C)C(=O)N[C@@]1(C)CCCC=CCCC[C@@](C)(C(=O)N[C@@H](CCCC)C(=O)N[C@@H](C)C(=O)N[C@@H](CC(C)C)C(=O)N[C@@H](CO)C(=O)N[C@@H](CCCNC(=N)N)C(=O)N[C@H](C(N)=O)[C@@H](C)CC)NC(=O)[C@H]([C@@H](C)CC)NC(=O)[C@H](C(C)C)NC(=O)[C@H](CC(C)C)NC1=O [SP-57] (Ac-FIDEEVL[Nle][S5]LVI[S5][Nle]ALSRI-NH2; staple 9-13)	++++ (≥50: ++++)	5 to 15
CCCC[C@H](NC(=O)[C@H](CC(C)C)NC(=O)[C@@H](NC(=O)[C@H](CCC(=O)O)NC(=O)[C@H](CCC(=O)O)NC(=O)[C@H](CC(=O)O)NC(=O)[C@@H](NC(=O)[C@H](Cc1ccccc1)NC(C)=O)[C@@H](C)CC)C(C)C)C(=O)N[C@@]1(C)CCCC=CCCC[C@@](C)(C(=O)N[C@@H](CCCC)C(=O)N[C@@H](C)C(=O)N[C@@H](CC(C)C)C(=O)N[C@@H](CC(=O)O)C(=O)N[C@@H](CCCNC(=N)N)C(=O)N[C@H](C(N)=O)[C@@H](C)CC)NC(=O)[C@H]([C@@H](C)CC)NC(=O)[C@H](CCC(=O)O)NC(=O)[C@H](CC(C)C)NC1=O [SP-36] (Ac-FIDEEVL[Nle][S5]LEI[S5][Nle]ALDRI-NH2; staple 9-13)	+ (<10: +)	> 30
